Laboratory results: patent US20230381257A1, “HERBAL COMPOSITION JCM-16021 AS TREATMENT FOR INFLAMMATORY BOWEL DISEASE” (Hong Kong Baptist University, priority 2022, published 2023)

Assays:
Assay type in all cases: in vivo, Rag 1−/− immunodeficient mice
[1] = tested on: ulcerative colitis induced by CD4+ naive T cell transfer; test: CD4+ naive T cell transfer-induced ulcerative colitis model: fecal occult blood, pathological index, H&E/PAS histology
From the text: Day one of the experiment is defined as i) adoptive transfer of […] CD4^+ T cells to Rag 1^−/− mice or ii) first day of DSS administration. JCM-16021 was orally administered to mice (weighing approximately 22-24 grams) at doses of 1.0 and 2.0 g/kg. Body weight and fecal bleeding were monitored every three days. Mice were euthanized and serum, colon tissue, spleen, mesenteric lymph nodes and feces were collected for further analysis.
Fecal occult blood test kit was purchased from Nanjing Jiancheng Bioengineering Institute and performed according to the kit instructions.
Histological staining, PAS staining, immunohistochemical staining and immunofluorescent staining: • At the end of the experiment, mouse colon tissue was preserved using 4% paraformaldehyde fixed at 4° C. for 2 hours and embedded in paraffin. After dewaxing, mouse colon tissue sections were washed with PBS and blocked with 3% H2O2. Tissue sections were then blocked with blocking solution (10% horse serum, 0.1% bovine serum albumin, 0.2% gelatin) at room temperature for 1 hour to block non-specific sites. […]
Histological grading of colitis were analyzed based on inflammatory features, extent, regeneration, crypt damage and percentage in hematoxylin-eosin and periodic acid-Schiff stained colon sections. Colitis scores will be determined by two independent researchers blinded to animal treatment.
CD4^+ naive T cells were isolated and purified from the spleens of wild-type C57BL/6J mice using a naive CD4+ T cell isolation kit (#130-104-453, Miltenyi Biotech) according to the manufacturer's recommendations. The isolated CD4^+ naive T cells were incubated with antibodies against CD4 (#100406, BioLegend), CD25 (#17025182, eBiosciences) and CD45RB (#103314, BioLegend) and purity was analyzed by BD Fortessa flow cytometer (BD Biosciences). […] Clinical symptoms of colitis including fecal occult blood, loose stool/diarrhea, rough/hunched posture and weight loss were monitored every three days thereafter. […]

CD4+Foxp3+ Treg cells = test: Flow cytometry of regulatory T cells in colon lamina propria lymphocytes, T cell transfer colitis model; conditions: JCM-16021 2.0 g/kg; IFLX 5 mg/kg; FACS, FIG. 4B
Procedure: After dissecting and isolating the colon from mice, it was washed four times in ice-cold PBS (137 mM NaCl, 2.7 mM KCl, 10 mM Na2HPO4, 1.8 mM KH2PO4, pH 7.4) and then cut into approximately 1 cm long fragments. Intestinal epithelial cells and lamina propria were separated by vigorous shaking in HBSS buffer containing 2 mM EDTA at 37° C. for 30 minutes. Intestinal epithelial cells were collected by centrifugation at 1,000 rpm at 4° C. The remaining colon tissue was incubated with digestion buffer (DMEM medium, 5% fetal calf serum, 1 mg/mL collagenase IV and DNAse I) at 37° C. with shaking for 40 minutes to separate colon lamina propria lymphocytes. The digested colon tissue cell suspension was filtered through a 70 micron cell filter and centrifuged. […]
Colon lamina propria lymphocytes were diluted to 1×10^5 cells/mL and subjected to intracellular staining after fixation and permeabilization. Cells were stained with a primary antibody diluted 1:100 at 4° C. in the dark for 30 minutes and analyzed by flow cytometry using antibodies against CD3 (APC, BD Biosciences), CD4 (FITC, BD Biosciences), and Foxp3 (PE, BD Biosciences). Analysis was performed using a BD LSRFortessa™ flow cytometer (BD Biosciences) and data obtained was analyzed using FlowJo software. […]

Tnf-α and Mcp-1 mRNA = test: qRT-PCR of colon tissue, T cell transfer colitis model
Procedure: Total RNA was extracted from tissues using Trizol reagent (Invitrogen) and reverse transcribed into cDNA using cDNA synthesis kit (Bio-Rad Laboratories). The cDNA was diluted 50-fold as a template for qRT-PCR. According to the kit instructions mRNA expression levels were detected using SYBR Green fluorescent probe. Primers used for qRT-PCR are: Tnf-α, forward primer 5′-[…]-3′ (SEQ ID NO:1), reverse primer 5′-[…]-3′ (SEQ ID NO:2); Mcp-1, forward primer 5′-[…]-3′ (SEQ ID NO:3), reverse primer 5′-[…]-3′ (SEQ ID NO:4); 18S rRNA, forward primer 5′-[…]-3′ (SEQ ID NO:5), reverse primer 5′-[…]-3′ (SEQ ID NO:6).
CD4^+ naive T cells were isolated and purified from the spleens of wild-type C57BL/6J mice using a naive CD4+ T cell isolation kit (#130-104-453, Miltenyi Biotech) according to the manufacturer's recommendations. The isolated CD4^+ naive T cells were incubated with antibodies against CD4 (#100406, BioLegend), CD25 (#17025182, eBiosciences) and CD45RB (#103314, BioLegend) and purity was analyzed by BD Fortessa flow cytometer (BD Biosciences). 4×10^5 CD4^+ naive T cells were intraperitoneally injected into Rag 1^−/− immunodeficient mice. Clinical symptoms of colitis including fecal occult blood, loose stool/diarrhea, rough/hunched posture and weight loss were monitored every three days thereafter. […]

infliximab [IFLX]
fecal occult blood ([1]; JCM-16021 1.0 and 2.0 g/kg oral twice daily for three weeks, IFLX 5 mg/kg once weekly, FIG. 1C): did not exhibit similar activity | ulcerative colitis pathological index ([1]; JCM-16021 1.0 and 2.0 g/kg oral twice daily for three weeks, IFLX 5 mg/kg once weekly, FIG. 1D): did not exhibit similar activity | overall therapeutic efficacy (comparison of doses and with IFLX) ([1]; JCM-16021 2.0 g/kg vs 1.0 g/kg, infliximab 5 mg/kg under the same experimental conditions): less effective than JCM-16021 | ratio of CD4+Foxp3+ Treg cells in isolated LPMC (CD4+Foxp3+ Treg cells): similar | expression level of Tnf-α mRNA in colon tissue (Tnf-α and Mcp-1 mRNA; FIG. 2B): significantly reduced | expression level of Mcp-1 mRNA in colon tissue (Tnf-α and Mcp-1 mRNA; FIG. 2C): significantly reduced
